PubChem BioAssay AID330 (DTP/NCI, 2004)
“And” between values parts separate entries of the source, which are not always exact repeats. Identical values can stand only once. Toxic doses and inconclusive results are not listed. The calls were made as follows: active = survival T/C of 150% or more; inactive = T/C below 125% in these data.

System: P388 leukemia ip, CD2F1 mice, survival T/C
Assay: NCI In Vivo Anticancer Drug Screen. Data for tumor model P388 Leukemia (intraperitoneal) in CD2F1 (CDF1) mice
Conditions: endpoint: median survival time, higher = longer survival
How it was run: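 Mice carrying the transplanted tumor received test compound or vehicle. Survival was recorded in each group, and the value is the treated-group measurement divided by that of the vehicle-treated control group.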

[1] = dose: 30.0 mg/kg/injection, schedule: Q01DX005 (ip), vehicle: Klucel (hydroxypropylcellulose) (HPC)
[2] = dose: 60.0 mg/kg/injection, schedule: Q01DX005 (ip), vehicle: Klucel (hydroxypropylcellulose) (HPC)
[3] = dose: 120.0 mg/kg/injection, schedule: Q01DX005 (ip), vehicle: Klucel (hydroxypropylcellulose) (HPC)
[4] = dose: 240.0 mg/kg/injection, schedule: Q01DX005 (ip), vehicle: Klucel (hydroxypropylcellulose) (HPC)
[5] = dose: 50.0 mg/kg/injection, schedule: Q01DX005 (ip), vehicle: saline with Tween-80
[6] = dose: 100.0 mg/kg/injection, schedule: Q01DX005 (ip), vehicle: saline with Tween-80
[7] = dose: 200.0 mg/kg/injection, schedule: Q01DX005 (ip), vehicle: saline with Tween-80
[8] = dose: 50.0 mg/kg/injection, schedule: Q01DX009 (ip), vehicle: Klucel (hydroxypropylcellulose) (HPC)
[9] = dose: 100.0 mg/kg/injection, schedule: Q01DX009 (ip), vehicle: Klucel (hydroxypropylcellulose) (HPC)
[10] = dose: 25.0 mg/kg/injection, schedule: Q01DX009 (ip), vehicle: saline with Tween-80
[11] = dose: 50.0 mg/kg/injection, schedule: Q01DX009 (ip), vehicle: saline with Tween-80

Measured: T/C

COC(=O)c1cccnc1C#N
inactive: [1] 100 % of control | [2] 110 % of control | [3] 102 % of control | [4] 112 % of control

O=C(O)c1cccc2c1Cc1cc([N+](=O)[O-])ccc1-2
inactive: dose: 50.0 mg/kg/injection, schedule: Q01DX005 (ip), vehicle: Klucel (hydroxypropylcellulose) (HPC) 95 % of control | dose: 100.0 mg/kg/injection, schedule: Q01DX005 (ip), vehicle: Klucel (hydroxypropylcellulose) (HPC) 103 % of control

CCC1N=C(N)N=C(N)N1c1ccc(Cl)c(Cl)c1 (configuration not stated)
inactive: dose: 3.12 mg/kg/injection, schedule: Q01DX005 (ip), vehicle: Klucel (hydroxypropylcellulose) (HPC) 104 % of control and 96 % of control | dose: 6.25 mg/kg/injection, schedule: Q01DX005 (ip), vehicle: Klucel (hydroxypropylcellulose) (HPC) 102 % of control and 105 % of control and 107 % of control | dose: 12.5 mg/kg/injection, schedule: Q01DX005 (ip), vehicle: Klucel (hydroxypropylcellulose) (HPC) 113 % of control and 114 % of control and 97 % of control | dose: 25.0 mg/kg/injection, schedule: Q01DX005 (ip), vehicle: Klucel (hydroxypropylcellulose) (HPC) 111 % of control and 114 % of control

CCOC(=O)CC1(C)SCCN1C(=O)OCC (configuration not stated)
inactive: dose: 25.0 mg/kg/injection, schedule: Q01DX005 (ip), vehicle: saline with Tween-80 102 % of control | [5] 98 % of control | [6] 91 % of control | [7] 105 % of control

CC1=C(N2CC2)C(=O)c2ccccc2C1=O
inactive: [8] 93 % of control | [9] 90 % of control

Nc1nc2nc[nH]c2c(=O)[nH]1
inactive: [10] 97 % of control | [11] 98 % of control | dose: 100.0 mg/kg/injection, schedule: Q01DX009 (ip), vehicle: saline with Tween-80 90 % of control | dose: 100.0 mg/kg/injection, schedule: Q01DX009 (ip), vehicle: suspension in saline 97 % of control | dose: 200.0 mg/kg/injection, schedule: Q01DX009 (ip), vehicle: saline with Tween-80 90 % of control | dose: 200.0 mg/kg/injection, schedule: Q01DX009 (ip), vehicle: suspension in saline 92 % of control | dose: 400.0 mg/kg/injection, schedule: Q01DX009 (ip), vehicle: suspension in saline 87 % of control

CCOC(=O)NC(NC(=O)OCC)c1ccccc1
inactive: dose: 100.0 mg/kg/injection, schedule: Q04DX003 (ip), vehicle: saline 100 % of control | dose: 200.0 mg/kg/injection, schedule: Q04DX003 (ip), vehicle: saline 98 % of control | dose: 400.0 mg/kg/injection, schedule: Q04DX003 (ip), vehicle: saline 92 % of control

CSc1ncc(Br)c(Sc2nccn2C)n1
inactive: dose: 60.0 mg/kg/injection, schedule: Q01DX005 (ip), vehicle: saline with Tween-80 112 % of control | dose: 120.0 mg/kg/injection, schedule: Q01DX005 (ip), vehicle: saline with Tween-80 117 % of control | dose: 240.0 mg/kg/injection, schedule: Q01DX005 (ip), vehicle: saline with Tween-80 114 % of control

CC(=O)OC1CSc2ccccc2N(C(C)=O)C1 (configuration not stated)
inactive: [2] 104 % of control | [3] 99 % of control | [4] 107 % of control

C[n+]1ccc(/C(C#N)=N/O)cc1
inactive: [8] 119 % of control | [9] 110 % of control | dose: 200.0 mg/kg/injection, schedule: Q01DX009 (ip), vehicle: Klucel (hydroxypropylcellulose) (HPC) 109 % of control

Oc1ccccc1C=NCc1ccccc1.[CH-]=C([CH2-])C.[Pd+2]
inactive: dose: 6.25 mg/kg/injection, schedule: Q01DX009 (ip), vehicle: Klucel (hydroxypropylcellulose) (HPC) 107 % of control | dose: 6.25 mg/kg/injection, schedule: Q04DX003 (ip), vehicle: Klucel (hydroxypropylcellulose) (HPC) 92 % of control | dose: 12.5 mg/kg/injection, schedule: Q01DX009 (ip), vehicle: Klucel (hydroxypropylcellulose) (HPC) 106 % of control | dose: 12.5 mg/kg/injection, schedule: Q04DX003 (ip), vehicle: Klucel (hydroxypropylcellulose) (HPC) 113 % of control | dose: 25.0 mg/kg/injection, schedule: Q01DX009 (ip), vehicle: Klucel (hydroxypropylcellulose) (HPC) 106 % of control | dose: 25.0 mg/kg/injection, schedule: Q04DX003 (ip), vehicle: Klucel (hydroxypropylcellulose) (HPC) 111 % of control

O=C(NCc1ccccc1)c1ccccc1NS(=O)(=O)c1ccc(Cl)c(Cl)c1
inactive: [5] 96 % of control | [6] 87 % of control | [7] 93 % of control

N=C(N)SCc1c2ccccc2cc2ccccc12
inactive: dose: 22.0 mg/kg/injection, schedule: Q01DX009 (ip), vehicle: saline with Tween-80 109 % of control | dose: 33.0 mg/kg/injection, schedule: Q01DX009 (ip), vehicle: saline with Tween-80 109 % of control | [11] 109 % of control | dose: 75.0 mg/kg/injection, schedule: Q01DX009 (ip), vehicle: saline with Tween-80 118 % of control | dose: 100.0 mg/kg/injection, schedule: Q04DX003 (ip), vehicle: saline with Tween-80 118 % of control

CC1OCOC(CO)C(O)C1O (configuration not stated)
inactive: dose: 50.0 mg/kg/injection, schedule: Q01DX005 (ip), vehicle: saline 101 % of control | dose: 100.0 mg/kg/injection, schedule: Q01DX005 (ip), vehicle: saline 105 % of control | dose: 200.0 mg/kg/injection, schedule: Q01DX005 (ip), vehicle: saline 105 % of control

C1CC[C@H]2OCN[C@@H]2C1
inactive: dose: 200.0 mg/kg/injection, schedule: Q04DX002 (ip), vehicle: Klucel (hydroxypropylcellulose) (HPC) 118 % of control | dose: 400.0 mg/kg/injection, schedule: Q04DX002 (ip), vehicle: Klucel (hydroxypropylcellulose) (HPC) 115 % of control

O=S(=O)(c1cccc(C(F)(F)F)c1)N(CCCCCN(S(=O)(=O)c1cccc(C(F)(F)F)c1)S(=O)(=O)c1cccc(C(F)(F)F)c1)S(=O)(=O)c1cccc(C(F)(F)F)c1
inactive: [2] 101 % of control | [3] 92 % of control | [4] 88 % of control

O=C1CCCCc2ccc(O)cc21
inactive: dose: 100.0 mg/kg/injection, schedule: Q01DX009 (ip), vehicle: gum acacia 104 % of control | dose: 200.0 mg/kg/injection, schedule: Q01DX009 (ip), vehicle: gum acacia 102 % of control | dose: 400.0 mg/kg/injection, schedule: Q01DX009 (ip), vehicle: gum acacia 110 % of control

C1C2CC3C1C1OC3C21
inactive: [2] 100 % of control | [3] 99 % of control | [4] 100 % of control

O=c1c2ccccc2nc2sc3nc4ccccc4c(=O)n3n12
inactive: dose: 15.0 mg/kg/injection, schedule: Q01DX005 (ip), vehicle: Klucel (hydroxypropylcellulose) (HPC) 94 % of control | [1] 91 % of control | [2] 88 % of control and 92 % of control | [3] 89 % of control | [4] 96 % of control

ClC1=CN(C2=NCCC2)CC1
inactive: dose: 6.25 mg/kg/injection, schedule: Q01DX009 (ip), vehicle: saline with Tween-80 101 % of control | dose: 12.5 mg/kg/injection, schedule: Q01DX009 (ip), vehicle: saline with Tween-80 103 % of control | [10] 97 % of control

COc1ccc(/C=N/Nc2nnc3c4cccnc4c4ccccc4c3n2)cc1OC
inactive: dose: 3.12 mg/kg/injection, schedule: Q01DX001 (ip), vehicle: saline with Tween-80 102 % of control and 87 % of control | dose: 6.25 mg/kg/injection, schedule: Q01DX001 (ip), vehicle: saline with Tween-80 100 % of control and 87 % of control | dose: 50.0 mg/kg/injection, schedule: Q01DX001 (ip), vehicle: saline with Tween-80 104 % of control and 112 % of control | dose: 100.0 mg/kg/injection, schedule: Q01DX001 (ip), vehicle: saline with Tween-80 100 % of control and 111 % of control | dose: 200.0 mg/kg/injection, schedule: Q01DX001 (ip), vehicle: saline with Tween-80 106 % of control and 114 % of control | dose: 400.0 mg/kg/injection, schedule: Q01DX001 (ip), vehicle: saline with Tween-80 107 % of control
